This is an account of results in patent publication US11504371B2, “Quinazolines compound, preparation method therefor and application thereof” (Beijing Normal University, priority 2017, dated 2022).

pIC50: −log10 of the molar value. Where only a bound is given, the exact number is not on record here.

Holding throughout (assay type): cell-based
Assay [1] concerns human neuroblastoma cell line (SH-SY5Y). Briefly: MTT assay, tumor cell proliferation inhibition, SH-SY5Y. To be noted: for pIC50: SH-SY5Y, 72 h, read-out: Tumor inhibition rate (IC50). How it is done:
(§1) Cell lines to be tested: human hepatoma cell line (HepG2), human lung cancer cell line (A549), human prostate cancer cell line (DU145), human breast cancer cell line (MCF-7), human neuroblastoma cell line (SH-SY5Y), human gastric mucosal cell line (Ges-1) and human embryonic lung fibroblast cell line (CCC-HPF-1) (the cells to be tested were purchased from the Cancer Hospital of Chinese Academy of Medical Sciences).
(§2) The cells in logarithmic growth phase were treated to prepare a single cell suspension, with the cell density adjusted, which was seeded in a 96-well cell culture plate. About 2×10^3 cells were contained in 100 μL per well, and cultured in a cell incubator at 37° C., 5% CO2, and saturated humidity for 24 h. The used medium was aspirated and abandoned, and then 100 μL of the target compound in different concentrations (0.1 μM-100 μM) were added for drug treatment. Five duplicate wells were prepared for each concentration. The background blank well, negative control well and positive control well were also prepared. All the wells were placed in a cell culture incubator at 37° C., 5% CO2, saturated humidity for another 72 h. Then, each well was added with 10 μL of MTT solution (5 mg/mL) and incubated for another 4 h. After that, each well was added with 100 μL of 10% SDS-0.1% NH4Cl (10% SDS purchased from Beijing Mengyimei Biotechnology Co., Ltd.) solution, and incubated at 37° C. for 10 h in the dark. Then, the absorbance OD was measured at 570 nm using a microplate reader at a reference wavelength of 650 nm. Cell proliferation inhibition was calculated according to the following formula: % inhibition=(ODcontrol−ODtreat)(ODcontrol−ODblank)×100. […] Each group was performed at least three times in parallel.
Background: Tetrazolium dyes change colour on reduction, which living cells bring about.

The test system of assay [2] is human hepatoma cell line (HepG2). Briefly: MTT assay, tumor cell proliferation inhibition, HepG2. To be noted: 72 h, read-out: Tumor inhibition rate (IC50). As to the method:
as §1, §2

The test system of assay [3] is human lung cancer cell line (A549). Briefly: MTT assay, tumor cell proliferation inhibition, A549. The following applies: for pIC50: A549, MTT, 72 h, read-out: Tumor inhibition rate (IC50); for inhibitory activity on A549 (in words): MTT, summary of Table 1. How it is done:
as §1, §2

For assay [4], the system named is human breast cancer cell line (MCF-7). Description: MTT assay, tumor cell proliferation inhibition, MCF-7. The following applies: for pIC50: MCF-7, MTT, 72 h, read-out: Tumor inhibition rate (IC50). As to the method:
as §1, §2

Assay [5] deals with human prostate cancer cell line (DU145). Description: MTT assay, tumor cell proliferation inhibition, DU145. The following applies: DU145, MTT, 72 h; read-out: Tumor inhibition rate (IC50). As to the method: as §1, §2

The term pIC50 denotes the IC50 on a negative log10 scale, so that one unit is a factor of ten. For the molecule `O=[N+]([O-])c1ccc(COc2cccc(Nc3ncnc4cc5c(cc34)OCCOCCO5)c2)cc1` [Compound 2, N-(3-((4-nitrophenyl)methoxy)phenyl)-6,7-(benzo-9-crown-3)-4-quinazolinamine], the negative logarithm of the IC50 (pIC50) in assay [1] was 4.44; in assay [2], 4.18; in assay [3] it was 4.81; in assay [4], 4.37; in assay [5], below 4.00.

On to `Fc1ccc(COc2ccccc2Nc2ncnc3cc4c(cc23)OCCOCCO4)cc1` [Compound 4, N-(2-((p-fluorophenyl)methoxy)phenyl)-6,7-(benzo-9-crown-3)-4-quinazolinamine], for which the negative-log IC50 (pIC50) was 4.07 in assay [1]; below 4.00 in assay [2]; 4.84 in assay [3]; below 4.00 in assay [4]; below 4.00 in assay [5].

Regarding `Fc1ccc(COc2cccc(Nc3ncnc4cc5c(cc34)OCCOCCO5)c2)cc1` [Compound 5, N-(3-((p-fluorophenyl)methoxy)phenyl)-6,7-(benzo-9-crown-3)-4-quinazolinamine], the pIC50 in assay [1] was 4.26; in assay [2], below 4.00; in assay [3], 5.11; in assay [4], 4.11; in assay [5], below 4.00. In assay [3], the “inhibitory activity on A549 (in words)” value is on record as “strong specific inhibitory activity”.

In the case of `Fc1ccc(COc2ccc(Nc3ncnc4cc5c(cc34)OCCOCCO5)cc2)cc1` [Compound 6, N-(4-((p-fluorophenyl)methoxy)phenyl)-6,7-(benzo-9-crown-3)-4-quinazolinamine], the pIC50 in assay [1] was 4.08; in assay [2] it was below 4.00; in assay [3], 4.36; in assay [4], 4.19; in assay [5] it was below 4.00.

In the case of `FC(F)(F)c1ccc(COc2ccccc2Nc2ncnc3cc4c(cc23)OCCOCCO4)cc1` [Compound 7, N-(2-((4-trifluoromethylphenyl)methoxy)phenyl)-6,7-(benzo-9-crown-3)-4-quinazolinamine], the pIC50 was below 4.00 in assay [1]; 4.06 in assay [2]; below 4.00 in assay [3]; below 4.00 in assay [4]; below 4.00 in assay [5].

For `FC(F)(F)c1ccc(COc2cccc(Nc3ncnc4cc5c(cc34)OCCOCCO5)c2)cc1` [Compound 8, N-(3-((4-trifluoromethylphenyl)methoxy)phenyl)-6,7-(benzo-9-crown-3)-4-quinazolinamine], the pIC50 is 4.72 in assay [1]; below 4.00 in assay [2]; below 4.00 in assay [3]; below 4.00 in assay [4]; below 4.00 in assay [5].

For `FC(F)(F)c1ccc(COc2ccc(Nc3ncnc4cc5c(cc34)OCCOCCO5)cc2)cc1` [Compound 9, N-(4-((4-trifluoromethylphenyl)methoxy)phenyl)-6,7-(benzo-9-crown-3)-4-quinazolinamine], the pIC50 in assay [1] was 4.52; in assay [2], below 4.00; in assay [3], below 4.00; in assay [4], below 4.00; in assay [5], below 4.00.

Consider `N#Cc1ccc(COc2cccc(Nc3ncnc4cc5c(cc34)OCCOCCOCCO5)c2)cc1` [Compound 10, N-(3-((4-cyanophenyl)methoxy)phenyl)-6,7-(benzo-12-crown-4)-4-quinazolinamine], for which the negative logarithm of the IC50 (pIC50) in assay [1], in assay [2], in assay [3], in assay [4] and in assay [5] was below 4.00 each time.

For the molecule `N#Cc1ccc(COc2ccc(Nc3ncnc4cc5c(cc34)OCCOCCOCCO5)cc2)cc1` [Compound 11, N-(4-((4-cyanophenyl)methoxy)phenyl)-6,7-(benzo-12-crown-4)-4-quinazolinamine], the pIC50 in assay [1] was 5.00; in assay [2], 4.17; in assay [3], 4.09; in assay [4], below 4.00; in assay [5] it was below 4.00. For the same molecule, the “inhibitory effect on SH-SY5Y (in words)” value in assay [1] (summary of Table 1) is “strong specific inhibitory effect”.

`c1ccc(OCc2ccncc2)c(Nc2ncnc3cc4c(cc23)OCCOCCO4)c1` [Compound 12, N-(2-((4-pyridyl)methoxy)phenyl)-6,7-(benzo-9-crown-3)-4-quinazolinamine]: the negative-log IC50 (pIC50) in assay [1] was below 4.00; in assay [2], 4.51; in assay [3] it was below 4.00; in assay [4] it was below 4.00; in assay [5], below 4.00.

On to `Fc1ccc(COc2ccccc2Nc2ncnc3cc4c(cc23)OCCOCCO4)cc1Cl` [Compound 13, N-(2-((3-chloro,4-fluorophenyl)methoxy)phenyl)-6,7-(benzo-9-crown-3)-4-quinazolinamine], for which the pIC50 in assay [1] was below 4.00; in assay [2], below 4.00; in assay [3], 5.03; in assay [4], below 4.00; in assay [5], 4.05. Moreover, in assay [3], the “inhibitory activity on A549 (in words)” value is recorded as “strong specific inhibitory activity”.

For the molecule `Fc1ccc(COc2cccc(Nc3ncnc4cc5c(cc34)OCCOCCO5)c2)cc1Cl` [Compound 14, N-(3-((3-chloro,4-fluorophenyl)methoxy)phenyl)-6,7-(benzo-9-crown-3)-4-quinazolinamine], the pIC50 in assay [1] was 4.64; in assay [2] it was 4.36; in assay [3], below 4.00; in assay [4], below 4.00; in assay [5], 4.05.

Turning to `Fc1ccc(COc2ccc(Nc3ncnc4cc5c(cc34)OCCOCCO5)cc2)cc1Cl` [Compound 15, N-(4-((3-chloro,4-fluorophenyl)methoxy)phenyl)-6,7-(benzo-9-crown-3)-4-quinazolinamine], the pIC50 in assay [1] was below 4.00; in assay [2], 4.12; in assay [3], below 4.00; in assay [4] it was below 4.00; in assay [5], below 4.00.

For `Fc1ccc(COc2ccc(Nc3ncnc4cc5c(cc34)OCCOCCOCCO5)cc2)cc1` [Compound 17, N-(4-((p-fluorophenyl)methoxy)phenyl)-6,7-(benzo-12-crown-4)-4-quinazolinamine], the negative logarithm of the IC50 (pIC50) is 4.68 in assay [1]; below 4.00 in assay [2]; below 4.00 in assay [3]; 5.08 in assay [4]; below 4.00 in assay [5]. The “inhibitory effect on MCF-7 (in words)” value in assay [4] (MTT, summary of Table 1) is on record as “strong specific inhibitory effect”.

On to `O=[N+]([O-])c1ccc(COc2ccccc2Nc2ncnc3cc4c(cc23)OCCOCCOCCO4)cc1` [Compound 18, N-(2-((4-nitrophenyl)methoxy)phenyl)-6,7-(benzo-12-crown-4)-4-quinazolinamine], for which the pIC50 in assay [1] was 4.12; in assay [2] it was 4.22; in assay [3] it was 4.52; in assay [4], below 4.00; in assay [5] it was below 4.00.

As for `O=[N+]([O-])c1ccc(COc2cccc(Nc3ncnc4cc5c(cc34)OCCOCCOCCO5)c2)cc1` [Compound 19, N-(3-((4-nitrophenyl)methoxy)phenyl)-6,7-(benzo-12-crown-4)-4-quinazolinamine], the pIC50 in assay [1], in assay [2], in assay [3], in assay [4] and in assay [5] was below 4.00 in each case.

Turning to `O=[N+]([O-])c1ccc(COc2ccc(Nc3ncnc4cc5c(cc34)OCCOCCOCCO5)cc2)cc1` [Compound 20, N-(4-((4-nitrophenyl)methoxy)phenyl)-6,7-(benzo-12-crown-4)-4-quinazolinamine], the pIC50 was 4.23 in assay [1]; 4.71 in assay [2]; below 4.00 in assay [3]; 4.18 in assay [4]; below 4.00 in assay [5].

Turning to `c1ccc(COc2cccc(Nc3ncnc4cc5c(cc34)OCCOCCOCCO5)c2)cc1` [Compound 21, N-(3-((phenyl)methoxy)phenyl)-6,7-(benzo-12-crown-4)-4-quinazolinamine], the pIC50 in assay [1] is 4.64; in assay [2] it was below 4.00; in assay [3] it was below 4.00; in assay [4], below 4.00; in assay [5], below 4.00.

As for `FC(F)(F)c1ccc(COc2ccccc2Nc2ncnc3cc4c(cc23)OCCOCCOCCO4)cc1` [Compound 22, N-(2-((4-trifluoromethylphenyl)methoxy)phenyl)-6,7-(benzo-12-crown-4)-4-quinazolinamine], the pIC50 in assay [1], in assay [2], in assay [3], in assay [4] and in assay [5] was below 4.00 in each case.

As for `FC(F)(F)c1ccc(COc2ccc(Nc3ncnc4cc5c(cc34)OCCOCCOCCO5)cc2)cc1` [Compound 24, N-(4-((4-trifluoromethylphenyl)methoxy)phenyl)-6,7-(benzo-12-crown-4)-4-quinazolinamine], the pIC50 in assay [1], in assay [2], in assay [3], in assay [4] and in assay [5] was below 4.00 each time.
